Measurements as given in patent US20100311714A1, “1H-IMIDAZO[4,5-c]QUINOLINONE COMPOUNDS” (priority 2009, published 2010).

System: PKB Ser473 phosphorylation in Rat1-myr-HA-p110 beta cells
Assay: Reverse protein array, PKB Ser473 phosphorylation in Rat1-myr-HA-p110 beta cells
Assay type: cell-based
Conditions: Rattus norvegicus, 0.5 h, 30 minutes compound incubation, read-out: p-PKB/IC50_beta

| Structure (SMILES) | IC50 |
| --- | --- |
| COc1cc(-c2ccc3ncc4c(c3c2)n(-c2ccc(N3CC(O)C3)nc2C)c(=O)n4C)cnc1CO [Example 29.5, 1-[6-(3-Hydroxy-azetidin-1-yl)-2-methyl-pyridin-3-yl]-8-(6-hydroxymethyl-5-methoxy-pyridin-3-yl)-3-methyl-1,3-dihydro-imidazo[4,5-c]quinolin-2-one] | 374 nM |
| CCNc1cc(-c2ccc3ncc4c(c3c2)n(-c2cccnc2C)c(=O)n4C)cnc1CO [Example 2.31, 8-(5-Ethylamino-6-hydroxymethyl-pyridin-3-yl)-3-methyl-1-(2-methyl-pyridin-3-yl)-1,3-dihydro-imidazo[4,5-c]quinolin-2-one] | 5.7 nM |
| CNc1cncc(-c2ccc3ncc4c(c3c2)n(-c2cccnc2C)c(=O)n4C)c1 [Example 2.26, 3-Methyl-8-(5-methylamino-pyridin-3-yl)-1-(2-methyl-pyridin-3-yl)-1,3-dihydro-imidazo[4,5-c]quinolin-2-one] | 7.4 nM |
| COCc1ncc(-c2ccc3ncc4c(c3c2)n(-c2ccc(N3CCC3)nc2C)c(=O)n4C)cc1OC(C)C [Example 23.2, 1-(6-Azetidin-1-yl-2-methyl-pyridin-3-yl)-8-(5-isopropoxy-6-methoxymethyl-pyridin-3-yl)-3-methyl-1,3-dihydro-imidazo[4,5-c]quinolin-2-one] | 53.4 nM |
| Cc1cccnc1-n1c(=O)n(C)c2cnc3ccc(-c4ccc(CO)nc4)cc3c21 [Example 3.9, 8-(6-Hydroxymethyl-pyridin-3-yl)-3-methyl-1-(3-methyl-pyridin-2-yl)-1,3-dihydro-imidazo[4,5-c]quinolin-2-one] | 689 nM |
| CCOc1ccc(-c2ccc3ncc4c(c3c2)n(-c2ncccc2C)c(=O)n4C)cn1 [Example 3.6, 8-(6-Ethoxy-pyridin-3-yl)-3-methyl-1-(3-methyl-pyridin-2-yl)-1,3-dihydro-imidazo[4,5-c]quinolin-2-one] | 546 nM |
| Cc1nc(N2CCC2)ccc1-n1c(=O)n(C)c2cnc3ccc(-c4cncc(OC(C)C)c4)cc3c21 [Example 23.9, 1-(6-Azetidin-1-yl-2-methyl-pyridin-3-yl)-8-(5-isopropoxy-pyridin-3-yl)-3-methyl-1,3-dihydro-imidazo[4,5-c]quinolin-2-one] | 136 nM |
| CCOc1cc(-c2ccc3ncc4c(c3c2)n(-c2ccc(F)nc2C)c(=O)n4C)cnc1COC [Example 7.5, 8-(5-Ethoxy-6-methoxymethyl-pyridin-3-yl)-1-(6-fluoro-2-methyl-pyridin-3-yl)-3-methyl-1,3-dihydro-imidazo[4,5-c]quinolin-2-one] | 82.1 nM |
| CNc1ccc(-c2ccc3ncc4c(c3c2)n(-c2ccc(N3CCC3)nc2C)c(=O)n4C)cn1 [Example 23.4, 1-(6-Azetidin-1-yl-2-methyl-pyridin-3-yl)-3-methyl-8-(6-methylamino-pyridin-3-yl)-1,3-dihydro-imidazo[4,5-c]quinolin-2-one] | 6.8 nM |
| CNc1ncc(-c2ccc3ncc4c(c3c2)n(-c2ncccc2C)c(=O)n4C)cn1 [Example 3.4, 3-Methyl-8-(2-methylamino-pyrimidin-5-yl)-1-(3-methyl-pyridin-2-yl)-1,3-dihydro-imidazo[4,5-c]quinolin-2-one] | 527 nM |
| Cc1nc(C(F)(F)F)ccc1-n1c(=O)n(C)c2cnc3ccc(-c4cncc(C(C)(C)O)c4)cc3c21 [Example 33.1, 8-[5-(1-Hydroxy-1-methyl-ethyl)-pyridin-3-yl]-3-methyl-1-(2-methyl-6-trifluoromethyl-pyridin-3-yl)-1,3-dihydro-imidazo[4,5-c]quinolin-2-one] | 50 nM |
| CCOc1cc(-c2ccc3ncc4c(c3c2)n(-c2cccnc2C)c(=O)n4C)cnc1COC [Example 2.28, 8-(5-Ethoxy-6-methoxymethyl-pyridin-3-yl)-3-methyl-1-(2-methyl-pyridin-3-yl)-1,3-dihydro-imidazo[4,5-c]quinolin-2-one] | 61 nM |
